Patent publication US4045290A, “Diagnostic method and compounds for use therewith” (Princeton Biomedix Incorporated, priority 1976, dated 1977)
Counter-ions that a name gives are not always drawn.

Assays:
[1] = system: alkaline phosphatase; assay: Kinetic rate of Thymol Blue release at 600 nm from substrate with serum alkaline phosphatase; format: biochemical; settings: for absorbance rate at 600 nm: 0.1 ml Validate A, 25° C.
Protocol: According to the test procedure of the subject invention, Thymol Blue Monophosphate is hydrolyzed by alkaline phosphatase to Thymol Blue in the presence of phosphorylatable diethanolamine buffer at pH 10.2. The color produced as a result thereof is proportional to enzyme present and the average change in absorbance per minute (ΔA/min) is determined at a wavelength of 600 nm.
Other amino alcohol buffers which can be phosphorylated and which can be used in this test are, for example, 2-ethylaminoethanol, 3-dimethylamino-1, 2-propanediol, 2-methylaminoethanol, those listed by Elias Amador, Clinical Chemistry, 18, 94 (1972) and the like. The amino alcohol buffer is present in an amount sufficient to raise the pH of the reaction mixture to about 10.2. The magnesium activator is used in an amount sufficient to activate the alkaline phosphatase enzyme in the sample to be tested. The concentration of magnesium ion in the substrate reagent is about 1.5 millimoles per liter. The concentration of Thymol Blue Monophosphate in the reagent is not critical but must be sufficient to permit a kinetic reaction to proceed over a period of time without the substrate being exhausted. The preferred concentration of this material is between 1 and 3 millimoles per liter. The serum sample to be tested is contacted with the substrate reagent at a given temperature which may be from about 22° to about 40° C. but preferably at 30° C. or 37° C. While the temperature affects the rate of reaction, the particular temperature used, within the limits of the stability of the sample, is not critical hereto. The average change in absorbance per minute (ΔA/min) at 600 nm is then determined in a spectrophotometer capable of reading absorbance at 600 nm and maintaining constant temperature in the cuvet compartment. By definition, one unit of alkaline phosphatase activity is the amount of enzyme that will hydrolyze one micromole of Thymol Blue Monophosphate to Thymol Blue in one minute at 30° C. The enzyme activity is calculated by the following formula: [formula] where: U/liter =units of enzyme activity per liter at 30° C.

[2] = Storage stability of substrate / reagent (absorbance at 600 nm, TLC); format: physicochemical
[3] = molecular target: T1, alkaline phosphatase (Homo sapiens, UniProt P05186); assay: Serum Alkaline Phosphatase End Point Assay; format: biochemical; settings: 1 ml reagent + 0.1 ml serum sample, 10 minutes at 37° C., stopped with NaOH/Na2CO3
T1 construct: from tissue; host or cells: serum
T1 sequence (P05186 18-501 limits assumed): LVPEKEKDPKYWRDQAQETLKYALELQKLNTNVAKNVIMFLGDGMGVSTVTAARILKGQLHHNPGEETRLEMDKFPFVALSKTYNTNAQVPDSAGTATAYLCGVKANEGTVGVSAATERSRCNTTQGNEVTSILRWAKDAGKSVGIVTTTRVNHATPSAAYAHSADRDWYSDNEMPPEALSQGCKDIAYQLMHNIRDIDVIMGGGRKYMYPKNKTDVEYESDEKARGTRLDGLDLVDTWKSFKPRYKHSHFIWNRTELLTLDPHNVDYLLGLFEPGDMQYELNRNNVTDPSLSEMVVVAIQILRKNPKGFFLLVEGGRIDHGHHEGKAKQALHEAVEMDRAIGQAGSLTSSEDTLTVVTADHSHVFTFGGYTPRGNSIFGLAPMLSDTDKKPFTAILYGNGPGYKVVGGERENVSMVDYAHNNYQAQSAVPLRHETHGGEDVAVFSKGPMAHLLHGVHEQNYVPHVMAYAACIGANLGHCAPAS
Protocol: If so desired an end-point procedure may be employed for determination of serum alkaline phosphatase activity employing Thymol Blue Monophosphate as the substrate. In this instance, the test serum sample is added to the diethanolamine buffered Thymol Blue Monophosphate substrate solution and the reaction is terminated after 10 minutes time by addition of an alkaline reagent such as, for example, 0.1M NaOH and 0.1M Na2 CO3. The absorbance of the sample is read at 600 nm and the enzyme activity is determined from a standard curve prepared from a Thymol Blue standard. The standard curve is prepared by measuring absorbance of dilutions of a known standard and plotting the measured absorbance against the calculated enzyme activity in units per liter.
A substrate for measurement of alkaline phosphatase by the end-point method prepared identical to that of example XVI. One ml of the reagent was placed in a suitable 10 ml tube for measurement of the test specimen and one ml of the reagent was placed in a second tube for measurement of the reagent blank. […] The reagent blank solution was used to set the spectrophotometer at 0 absorption and the specimen tube was then measured and found to have an absorption of 0.329 at 600 nm. From a standard curve constructed from known concentrations of Thymol Blue an activity of alkaline phosphatase of 38 U/liter was determined.

[4] = system: acid phosphatase; assay: Acid Phosphatase - End Point Assay; format: biochemical; settings: 1.2 mmol/liter substrate, 20 minutes 37° C.
Protocol: An end-point procedure may be employed for determination of acid phosphatase activity employing Thymol Blue Monophosphate as the substrate. In this instance, the test serum sample is added to a Thymol Blue Monophosphate solution buffered to a pH of about 5 and the reaction is terminated by addition of an alkaline reagent after 20 minutes reaction time. The absorbance of the sample is then read at 600 nm and the acid phosphatase enzyme activity is determined from a standard curve prepared from a Thymol Blue standard as described above.
A reagent was prepared containing 1.2 mmol/liter of Thymol Blue Monophosphate, 0.05 M Citrate buffer pH 5.0, and 0.1 % non inonic detergent, Tergitol NPX (Union Carbide Corporation).
One ml of this substrate reagent solution was placed in each of two test tubes which were warmed to 37° C. for 5 minutes. To one of the test tubes was added 0.2 ml of a serum sample containing an elevated level of acid phosphatase. The mixture was then permitted to stand at 37° C. for 20 minutes at which time 3.0 mls of alkali reagent (0.1 m Na2 CO3 + 0.1M NaOH) was added to stop the reaction. […]
The absorption of each solution was measured at 600 nm against distilled water. […] From standard curve, the acid phosphatase activity of the serum was calculated to be 6.5 U/liter.

[5] = Solubility and physical properties; format: physicochemical
[6] = substrate (not freeze-dried) in DEA buffer

## Cc1cc(O)c(C(C)C)cc1C1(c2cc(C(C)C)c(OP(=O)(O)O)cc2C)OS(=O)(=O)c2ccccc21 (stereo not drawn) [I, Thymol Blue Monophosphate, Sodium Salt Solution]
[1]; 2 ml working reagent (DEA buffer pH 10.2) + 50 μl Validate A control serum, 30° C.
  rate of reaction at 600 nm: 0.0308 min⁻¹

## Cc1cc(O)c(C(C)C)cc1C1(c2cc(C(C)C)c(OP(=O)(O)O)cc2C)OS(=O)(=O)c2ccccc21 (stereo not drawn) [II, Thymol Blue Monophosphate (AMPD Salt)]
[1]; pH 10.2 diethanolamine buffer with magnesium chloride, sera containing alkaline phosphatase
  performance as substrate for alkaline phosphatase (release of Thymol Blue): performed as a substrate for alkaline phosphatase

## Cc1cc(O)c(C(C)C)cc1C1(c2cc(C(C)C)c(OP(=O)(O)O)cc2C)OS(=O)(=O)c2ccccc21 (stereo not drawn) [III, Phosphorylated Thymol Blue]
[1]; 2 mg solid in 2.9 ml diethanolamine buffer pH 10.2, 0.1 ml Validate A
  absorbance rate (ΔA/min.) at 600 nm: 0.0180 min⁻¹
[1]; 5 mg sample in diethanolamine buffer pH 10.2, 0.1 ml Validate A
  absorbance rate (ΔA/min.) at 600 nm: 0.028 min⁻¹

## Cc1cc(O)c(C(C)C)cc1C1(c2cc(C(C)C)c(OP(=O)(O)O)cc2C)OS(=O)(=O)c2ccccc21 (stereo not drawn) [IV, Thymol Blue Monophosphate in Diethanolamine Buffer]
[1]; 2.9 ml test volume in 1.0M DEA buffer pH 10.2, 0.1 ml Lederzyme Control Sera, 30° C.
  rate at 600 nm: 0.037 min⁻¹
[2]; 2.9 ml test volume, 1.0M DEA buffer pH 10.2, fresh
  absorbance at 600 nm of buffered substrate, initial: 0.131
[2]; frozen, 6 months
  frozen buffered substrate after storage (absorbance): remained unchanged
[2]; refrigerated at 2° to 8° C. over 6 months
  activity toward alkaline phosphatase after storage: remained unchanged
[2]; refrigerated at 2° to 8° C. over 6 months, increase due to gradual hydrolysis
  absorbance at 600 nm of buffered substrate after storage: approximately 0.550

## Cc1cc(O)c(C(C)C)cc1C1(c2cc(C(C)C)c(OP(=O)(O)O)cc2C)OS(=O)(=O)c2ccccc21 (stereo not drawn) [Thymol Blue Monophosphate]
[1]; 2 ml substrate 1.5 mmol/liter, DEA buffer pH 10.2, MgCl2, 0.05 ml serum to be tested, 30° C.
  change in absorbance (ΔA/min) at 600 nm: 0.022
[3]
  absorption at 600 nm of specimen tube against reagent blank: 0.329
[4]; citrate buffer pH 5.0, 0.2 ml serum with elevated acid phosphatase, against distilled water
  absorption at 600 nm of test serum sample: 0.364
[4]; citrate buffer pH 5.0, 0.2 ml serum
  net increase in absorption over blank: 0.253 absorption units

## Cc1cc(O)c(C(C)C)cc1C1(c2cc(C(C)C)c(OP(=O)(O)O)cc2C)OS(=O)(=O)c2ccccc21 (stereo not drawn) [VIII, Sodium Thymol Blue Monophosphate Solution]
[5]; yellow orange solid
  solubility in absolute ethanol: slightly soluble
  solubility in water: readily soluble
[1]; 1 ml substrate solution + 1 ml 0.6 M DEA buffer pH 10.2, 0.1 ml Validate A, temperature not given
  rate at 600 nm: 0.0758 min⁻¹

## Cc1cc(O)c(C(C)C)cc1C1(c2cc(C(C)C)c(OP(=O)(O)O)cc2C)OS(=O)(=O)c2ccccc21 (stereo not drawn) [X, Thymol Blue Monophosphate Cyclohexylammonium Salt]
[5]; orange solid product
  hygroscopicity: hygroscopic
[1]; [6]
  absorbance rate at 600 nm: 0.0427 min⁻¹
[2]; after one month standing at room temperature
  stability of solid by TLC: Thymol Blue was detected on TLC indicating decomposition

## Cc1cc(O)c(C(C)C)cc1C1(c2cc(C(C)C)c(OP(=O)(O)O)cc2C)OS(=O)(=O)c2ccccc21 (stereo not drawn) [XI, Thymol Blue Monophosphate Sodium Salt Solution]
[1]; [6]
  absorbance rate at 600 nm: 0.0577 min⁻¹

## Cc1cc(O)c(C(C)C)cc1C1(c2cc(C(C)C)c(OP(=O)(O)O)cc2C)OS(=O)(=O)c2ccccc21 (stereo not drawn) [XII, Thymol Blue Monophosphate Ammonium Salt]
[1]; substrate (not freeze-dried) in DEA buffer, Monophosphate Ammonium Salt
  absorbance rate at 600 nm: 0.0486 min⁻¹

## Cc1cc(O)c(C(C)C)cc1C1(c2cc(C(C)C)c(OP(=O)(O)O)cc2C)OS(=O)(=O)c2ccccc21 (stereo not drawn) [XIII, Thymol Blue Monophosphate, Tris (hydroxymethyl)aminomethane Salt]
[1]; aqueous solution of the salt, clear amber liquid
  substrate activity with alkaline phosphatase: potent substrate activity
[1]; freeze-dried reagent reconstituted
  absorbance rate at 600 nm: 0.0552 min⁻¹
[1]; [6]
  absorbance rate at 600 nm: 0.0600 min⁻¹
